Measurements taken from the NIST ThermoML archive (doi:10.1016/j.fluid.2013.06.041).
± gives the expanded uncertainty stated by the source.

Test: xn = mol fraction of the nth substance listed
Conditions: 101 kPa, Liquid, Small sample (50 mg) DSC

CC(O)CO (centres undefined) [1,2-propanediol] + O
excess molar heat capacity [J/K/mol]
Conditions | 283.15 K | 293.15 K | 298.15 K | 303.15 K | 313.15 K
x1 = 0.02216 | 1.78 ± 0.43 | 2.01 ± 0.43 | 1.98 ± 0.43 | 1.95 ± 0.43 | 1.84 ± 0.43
x1 = 0.05617 | 3.3 ± 0.44 | 3.57 ± 0.44 | 3.62 ± 0.44 | 3.63 ± 0.44 | 3.59 ± 0.44
x1 = 0.07845 | 4.67 ± 0.45 | 5.18 ± 0.45 | 5.29 ± 0.45 | 5.35 ± 0.46 | 5.39 ± 0.46
x1 = 0.1224 | 5.38 ± 0.46 | 6.18 ± 0.46 | 6.43 ± 0.46 | 6.6 ± 0.46 | 6.81 ± 0.47
x1 = 0.1545 | 5.22 ± 0.45 | 6.19 ± 0.46 | 6.5 ± 0.46 | 6.73 ± 0.46 | 6.96 ± 0.47
x1 = 0.1667 | 4.94 ± 0.45 | 6.02 ± 0.46 | 6.37 ± 0.46 | 6.62 ± 0.46 | 6.95 ± 0.47
x1 = 0.1873 | 4.62 ± 0.45 | 5.79 ± 0.46 | 6.18 ± 0.46 | 6.49 ± 0.46 | 6.9 ± 0.47
x1 = 0.2272 | 4.15 ± 0.45 | 5.41 ± 0.46 | 5.86 ± 0.46 | 6.21 ± 0.46 | 6.72 ± 0.46
x1 = 0.2878 | 2.67 ± 0.44 | 4.01 ± 0.45 | 4.52 ± 0.45 | 4.94 ± 0.45 | 5.62 ± 0.46
x1 = 0.3965 | 1.6 ± 0.43 | 3.11 ± 0.44 | 3.65 ± 0.44 | 4.08 ± 0.45 | 4.77 ± 0.45
x1 = 0.4863 | 0.67 ± 0.43 | 1.88 ± 0.43 | 2.34 ± 0.44 | 2.75 ± 0.44 | 3.53 ± 0.44
x1 = 0.5274 | 0.69 ± 0.43 | 1.74 ± 0.43 | 2.17 ± 0.44 | 2.58 ± 0.44 | 3.35 ± 0.44
x1 = 0.6388 | 0.77 ± 0.43 | 1.63 ± 0.43 | 1.97 ± 0.43 | 2.3 ± 0.44 | 3.01 ± 0.44
x1 = 0.753 | 0.72 ± 0.43 | 1.32 ± 0.43 | 1.55 ± 0.43 | 1.76 ± 0.43 | 2.18 ± 0.44
x1 = 0.7757 | 0.8 ± 0.43 | 1.04 ± 0.43 | 1.24 ± 0.43 | 1.47 ± 0.43 | 1.96 ± 0.43
x1 = 0.9045 | 0.26 ± 0.43 | 0.38 ± 0.43 | 0.11 ± 0.42 | 0.14 ± 0.42 | 0.32 ± 0.43
x1 = 0.9677 | 0.09 ± 0.42 | – | – | – | –

OCCCCO [1,4-butanediol] + O
excess molar heat capacity [J/K/mol]
Conditions | 283.15 K | 293.15 K | 298.15 K | 303.15 K | 313.15 K
x1 = 0.00538 | 1.24 ± 0.43 | 1.14 ± 0.43 | 1.06 ± 0.43 | 1.01 ± 0.43 | 1.1 ± 0.43
x1 = 0.01312 | 2.19 ± 0.44 | 2.16 ± 0.44 | 2.08 ± 0.44 | 2.01 ± 0.44 | 1.92 ± 0.43
x1 = 0.02505 | 3.41 ± 0.44 | 3.49 ± 0.44 | 3.5 ± 0.44 | 3.52 ± 0.44 | 3.58 ± 0.44
x1 = 0.02518 | 3.17 ± 0.44 | 3.34 ± 0.44 | 3.32 ± 0.44 | 3.28 ± 0.44 | 3.33 ± 0.44
x1 = 0.03528 | 4.45 ± 0.45 | 4.6 ± 0.45 | 4.58 ± 0.45 | 4.53 ± 0.45 | 4.52 ± 0.45
x1 = 0.04842 | 5.39 ± 0.46 | 5.61 ± 0.46 | 5.64 ± 0.46 | 5.65 ± 0.46 | 5.67 ± 0.46
x1 = 0.0574 | 6.22 ± 0.46 | 6.53 ± 0.46 | 6.59 ± 0.46 | 6.62 ± 0.46 | 6.68 ± 0.46
x1 = 0.07589 | 6.43 ± 0.46 | 7.15 ± 0.47 | 7.34 ± 0.47 | 7.46 ± 0.47 | 7.6 ± 0.47
x1 = 0.08236 | 6.7 ± 0.46 | 7.51 ± 0.47 | 7.71 ± 0.47 | 7.85 ± 0.47 | 8.09 ± 0.47
x1 = 0.09032 | 6.66 ± 0.46 | 7.65 ± 0.47 | 7.89 ± 0.47 | 8.04 ± 0.47 | 8.25 ± 0.48
x1 = 0.1005 | 6.94 ± 0.47 | 8.03 ± 0.47 | 8.38 ± 0.48 | 8.63 ± 0.48 | 8.9 ± 0.48
x1 = 0.1396 | 6.87 ± 0.47 | 8.33 ± 0.48 | 8.81 ± 0.48 | 9.17 ± 0.48 | 9.74 ± 0.49
x1 = 0.1403 | 6.85 ± 0.47 | 8.37 ± 0.48 | 8.87 ± 0.48 | 9.24 ± 0.48 | 9.77 ± 0.49
x1 = 0.1868 | 6.33 ± 0.46 | 8.24 ± 0.48 | 9.84 ± 0.49 | 10.39 ± 0.49 | 11.21 ± 0.5
x1 = 0.2961 | 5.63 ± 0.46 | 7.75 ± 0.47 | 8.91 ± 0.48 | 9.42 ± 0.49 | 10.66 ± 0.5
x1 = 0.3972 | 4.75 ± 0.45 | 6.83 ± 0.47 | 7.7 ± 0.47 | – | 10.31 ± 0.49
x1 = 0.4965 | 4.04 ± 0.45 | 5.92 ± 0.46 | 6.8 ± 0.47 | 7.63 ± 0.47 | 9.13 ± 0.48
x1 = 0.5659 | 3.29 ± 0.44 | 5.08 ± 0.45 | 5.88 ± 0.46 | 6.64 ± 0.46 | 8.11 ± 0.48
x1 = 0.7004 | 2.95 ± 0.44 | 4.32 ± 0.45 | 4.96 ± 0.45 | 5.57 ± 0.46 | 6.8 ± 0.47
x1 = 0.7964 | 2.92 ± 0.44 | 3.47 ± 0.44 | 3.89 ± 0.45 | 4.33 ± 0.45 | 5.14 ± 0.45
x1 = 0.8873 | 1.38 ± 0.43 | 2.21 ± 0.44 | 2.5 ± 0.44 | 2.79 ± 0.44 | 3.63 ± 0.44
x1 = 0.9398 | 0.81 ± 0.43 | 1.14 ± 0.43 | 1.34 ± 0.43 | 1.56 ± 0.43 | 2.03 ± 0.43

OCCCO [propan-1,3-diol] + O
excess molar heat capacity [J/K/mol]
Conditions | 283.15 K | 293.15 K | 298.15 K | 303.15 K | 313.15 K
x1 = 0.02483 | 1.28 ± 0.43 | 1.4 ± 0.43 | 1.43 ± 0.43 | 1.44 ± 0.43 | 1.46 ± 0.43
x1 = 0.03693 | 1.89 ± 0.43 | 2.08 ± 0.44 | 2.13 ± 0.44 | 2.16 ± 0.44 | 2.26 ± 0.44
x1 = 0.05016 | 2.35 ± 0.44 | 2.72 ± 0.44 | 2.83 ± 0.44 | 2.9 ± 0.44 | 2.99 ± 0.44
x1 = 0.07515 | 2.54 ± 0.44 | 3.22 ± 0.44 | 3.44 ± 0.44 | 3.59 ± 0.44 | 3.8 ± 0.45
x1 = 0.1401 | 2.24 ± 0.44 | 3.61 ± 0.44 | 4.11 ± 0.45 | 4.52 ± 0.45 | 5.08 ± 0.45
x1 = 0.1504 | 2.2 ± 0.44 | 3.67 ± 0.44 | 4.21 ± 0.45 | 4.64 ± 0.45 | 5.27 ± 0.45
x1 = 0.299 | 1.59 ± 0.43 | 3.18 ± 0.44 | 3.84 ± 0.45 | 4.43 ± 0.45 | 5.44 ± 0.46
x1 = 0.3982 | 1.31 ± 0.43 | 2.66 ± 0.44 | 3.28 ± 0.44 | 3.85 ± 0.45 | 4.81 ± 0.45
x1 = 0.4976 | 1.26 ± 0.43 | 2.34 ± 0.44 | 2.82 ± 0.44 | 3.25 ± 0.44 | 4.02 ± 0.45
x1 = 0.5955 | 1.15 ± 0.43 | 1.92 ± 0.43 | 2.33 ± 0.44 | 2.74 ± 0.44 | 3.48 ± 0.44
x1 = 0.7025 | – | 1.71 ± 0.43 | 1.95 ± 0.43 | 2.2 ± 0.44 | 2.64 ± 0.44
x1 = 0.7902 | 0.98 ± 0.43 | 1.19 ± 0.43 | 1.3 ± 0.43 | 1.4 ± 0.43 | 1.49 ± 0.43
x1 = 0.9455 | 0.48 ± 0.43 | 0.53 ± 0.43 | 0.58 ± 0.43 | 0.61 ± 0.43 | 0.55 ± 0.43
